Test results published in publication PMC7523331, “Curcumin derivative C212 inhibits Hsp90 and eliminates both growing and quiescent leukemia cells in deep dormancy” (Cell Communication and Signaling : CCS, 2020).

Target: T1, Hsp90
T1 construct: gene HSP82; C-terminus of Hsp90 (C-Hsp90, 629–732, 15 kDa), His-tagged
Experiment: intrinsic fluorescence quenching titration with purified Hsp90 domains
Type: binding
Source text: intrinsic fluorescence quenching titration with purified Hsp90 domains on Hsp90 | Dissociation constant (Kd) values of C212 with different Hsp90 domains

- Kd: 15.3 ± 1.2 µM
SMILES: O=C(/C=C/c1cccnc1)C(Cc1ccccc1Cl)C(=O)/C=C/c1cccnc1 [C212, (1E,6E)-4-(2-Chlorinebenzyl)-1,7-bis(3-pyridine)-1,6-heptadiene-3,5-dione]
